From patent US4413006A, “N-Aryl-N-phenoxy-alkyl-piperazine compounds useful in decreasing intracranial pressure” (Tanabe Seiyaku Co., Ltd., priority 1980, dated 1983)
Like-named read-outs stand apart in the source and are kept apart here.

Experiments:
[1] = system: intracranial pressure (cerebrospinal fluid pressure in the cisterna magna); assay: Effect of i.v. injection of test compounds on intracranial pressure in rats (Experiment 1); assay type: in vivo, Male SD-rats; settings: for Change in intracranial pressure (%), time after administration of test compound 40 minutes / Change in intracranial pressure (%), time after administration of test compound 60 minutes / Change in intracranial pressure (%), time after administration of test compound 120 minutes / Change in intracranial pressure (%), time after administration of test compound 180 minutes: i.v. infusion 0.2 ml/kg/minute for 20 minutes; for Change in intracranial pressure (%), time after administration of test compound 40 minutes: baseline 100, control 106.4; for Change in intracranial pressure (%), time after administration of test compound 60 minutes: baseline 100, control 107.5; for Change in intracranial pressure (%), time after administration of test compound 120 minutes: baseline 100, control 114.4; for Change in intracranial pressure (%), time after administration of test compound 180 minutes: baseline 100, control 110.7
Procedure: (Effect of i.v. injection of test compounds on intracranial pressure in rats) Male SD-rats weighing 500 to 800 g (each group consisting of 5 rats) were anesthetized with urethane. A solution of a test compound in an aqueous 5 w/v % mannitol solution was infused via the femoral vein at a rate of 0.2 ml/kg/minute for 20 minutes (when the test compound was used in the form of free base, said solution was prepared by dissolving it in an aqueous 5 w/v % mannitol solution with the aid of 0.5 N hydrochloric acid). Intracranial pressure (i.e., cerebrospinal fluid pressure in the cisterna magna) was continuously monitored via a cannula inserted in the cisterna magna. The cannula was connected to a transducer, and recording were made on graph paper. The effect of the test compound on the intracranial pressure was estimated in terms of the increase or decrease in intracranial pressure, which was calculated in accordance with the following formula: [formula]

[2] = Maximum tolerance dose in mice (Experiment 3); design: species or system male mice; settings: mouse, in vivo, ip
Procedure: As a result, the maximum tolerance doses of 1-[3-(4-acetamido-2-methoxyphenoxy)-n-propyl]-4-(3-fluorophenyl)-piperazine, 1-[3-(4-acetamido-2-methoxyphenoxy)-n-propyl]-4-(2-fluorophenyl)-piperazine and 1-[3-(4-ethoxycarbonylamino-2-methoxyphenoxy)-n-propyl]-4-phenyl-piperazine methanesulfonate were more than 300 mg/kg.

[3] = system: apomorphine-induced cage climbing; assay: Anti-apomorphine activity in mice (Experiment 2 (3)); assay type: in vivo, male mice; settings: Mus musculus, ip, apomorphine hydrochloride 2.5 mg/kg s.c., dose decreasing climbing mice by 50%
Procedure: (§1) (Inhibitory effect of test compound on central nervous system in mice)
(§2) Inhibitory effect of test compound on central nervous system was examined by the following methods.
A solution or suspension of a test compound in water or an aqueous carboxymethylcellulose solution was administered intraperitoneally to male mice weighing 18 to 20 g (each group consisting of 5 mice). Thirty minutes after administration of the test compound, apomorphine hydrochloride (2.5 mg/kg) was administered subcutaneously to the mice, and the number of the mice which could climb a cage was examined. The 50% effective dose (ED50) of the test compound was estimated in terms of dose which is necessary to decrease the number of the medicated mice which could climb the cage by 50% of the number of a control group (i.e., non-medicated mice) which could climb the cage.

[4] = system: sodium hexobarbital-induced anesthesia; assay: Effect on sodium hexobarbital-induced anesthesia in mice (Experiment 2 (2)); assay type: in vivo, male mice; settings: Mus musculus, ip, sodium hexobarbital 100 mg/kg i.p., dose prolonging sleeping time to twice control
Procedure: as §1, §2
A solution or suspension of a test compound in water or an aqueous carboxymethylcellulose solution was administered intraperitoneally to male mice weighing 18 to 20 g (each group consisting of 5 mice). Thirty minutes after intraperitoneal administration of the test compound, sodium hexobarbital (100 mg/kg) was administered intraperitoneally to the mice, and the sleeping time between the loss and recovery of righting reflex was measured. The 50% effective dose (ED50) of the test compound was estimated in terms of dose which is necessary to prolong the sleeping time of the medicated mice twice as long as that of a control group (i.e., non-medicated mice).

[5] = system: spontaneous motor activity / central nervous system; assay: Inhibitory effect on spontaneous motor activity in mice (Experiment 2 (1)); assay type: in vivo, male mice; settings: Mus musculus, ip, 0.5 h, i.p., 30 minutes after administration, dose decreasing motor activity by 50%
Procedure: as §1, §2
A solution or suspension of a test compound in water or an aqueous carboxymethylcellulose solution was administered intraperitoneally to male mice weighing 18 to 20 g (each group consisting of 5 mice). Thirty minutes after administration of the test compound, the spontaneous motor activity of the mice was measured with an animex activity meter for 5 minutes. The 50% effective dose (ED50) of the test compound was estimated in terms of dose which is necessary to decrease the motor activity of the medicated mice by 50% of that of a control group (i.e., non-medicated mice).

Structure (SMILES)	Change in intracranial pressure (%), time after administration of test compound 40 minutes [1]	Change in intracranial pressure (%), time after administration of test compound 60 minutes [1]	Change in intracranial pressure (%), time after administration of test compound 120 minutes [1]	Change in intracranial pressure (%), time after administration of test compound 180 minutes [1]	other results
COc1cc(NC(C)=O)ccc1OCCCN1CCN(c2cccc(F)c2)CC1 [Example 5, 1-[3-(4-acetamido-2-methoxyphenoxy)-n-propyl]-4-(3-fluorophenyl)-piperazine]					decrease in the intracranial pressure ([1]; femoral vein infusion, dose 1 mg/kg, 40 minutes after administration): about 27%; MTD at 72 h [2]: > 300 mg/kg
COc1cc(NC(C)=O)ccc1OCCCN1CCN(c2ccccc2F)CC1 [Example 7, 1-[3-(4-acetamido-2-methoxyphenoxy)-n-propyl]-4-(2-fluorophenyl)-piperazine]					MTD at 72 h [2]: > 300 mg/kg
CCOC(=O)Nc1ccc(OCCCN2CCN(c3ccccc3)CC2)c(OC)c1.CS(=O)(=O)O [Example 21 methanesulfonate, 1-[3-(4-ethoxycarbonylamino-2-methoxyphenoxy)-n-propyl]-4-phenyl-piperazine methanesulfonate]	79.7%	79.3%	79.2%	82.2%	MTD at 72 h ([2]; mice, i.p., observed for 72 hours, read-out: maximum tolerance dose): > 300 mg/kg
COc1cc(NC(C)=O)ccc1OCCCN1CCN(c2ccccc2F)CC1 [NO. 2 (Table 4)]					ED50 [3]: 2.8 mg/kg
COc1cc(NC(C)=O)ccc1OCCCCN1CCN(c2ccccc2F)CC1 [NO. 3 (Table 1)]	86.6%	91.9%	85.7%	84.6%	
COc1cc(NC(C)=O)ccc1OCCCN1CCN(c2ccccc2F)CC1 [NO. 3 (Table 3)]					ED50 [4]: 1.3 mg/kg
CCOC(=O)Nc1ccc(OCCCN2CCN(c3ccccc3)CC2)c(OC)c1 [NO. 3 (Table 4)]					ED50 [3]: 3 mg/kg
CCNc1ccc(OCCCN2CCN(c3ccccc3)CC2)c(OC)c1.Cl [NO. 4 (Table 1), 1-[3-(4-ethylamino-2-methoxyphenoxy)-n-propyl]-4-phenyl-piperazine hydrochloride]	83.9%	81.1%	86.8%	91.3%	
COc1cc(NC(C)=O)ccc1OCCCN1CCN(c2ccccc2F)CC1 [NO. 4 (Table 2)]					ED50 [5]: 0.5 mg/kg
COc1cc(N)ccc1OCCCN1CCN(c2ccccc2)CC1 [NO. 5 (Table 1)]	79.1%	77.0%	75.0%	75.6%	
COc1cc(N)ccc1OCCCN1CCN(c2ccccc2)CC1 [NO. 5 (Table 2), 1-[3-(4-amino-2-methoxyphenoxy)-n-propyl]-4-phenyl-piperazine]					ED50 [5]: 0.7 mg/kg
COc1cc(NC(C)C(=O)O)ccc1OCCCN1CCN(c2ccccc2)CC1.Cl (stereo not drawn) [NO. 6 (Table 1), 1-{3-[4-(1-carboxyethylamino)-2-methoxyphenoxy]-n-propyl}-4-phenylpiperazine hydrochloride]	81.5%	86.2%	96.2%	99.0%	
COc1cc(NC=O)ccc1OCCCN1CCN(c2ccccc2)CC1 [NO. 7 (Table 1), 1-[3-(4-formylamino-2-methoxphenoxy)-n-propyl]-4-phenyl-piperazine]	84.1%	83.5%	83.5%	81.9%	
COc1cc(NC(=O)C(C)C)ccc1OCCCN1CCN(c2ccccc2)CC1 [NO. 8 (Table 1), 1-[3-(4-isobutyrylamino-2-methoxyphenoxy)-n-propyl]-4-phenyl-piperazine]	83.3%	85.4%	85.1%	87.1%	
COc1cc(NC(=O)C(C)(C)C)ccc1OCCCN1CCN(c2ccccc2)CC1 [NO. 9 (Table 1), 1-[3-(4-t-butylcarbonylamino-2-methoxyphenoxy)-n-propyl]-4-phenyl-piperazine]	84.1%	84.9%	84.9%	87.4%	
COc1cc(NC(=O)C2CC2)ccc1OCCCN1CCN(c2ccccc2)CC1 [NO. 10 (Table 1), 1-[3-(4-cyclopropylcarbonylamino-2-methoxyphenoxy)-n-propyl]-4-phenyl-piperazine]	85.9%	84.3%	83.6%	86.2%	
COc1cc(NC(=O)C2CCCCC2)ccc1OCCCN1CCN(c2ccccc2)CC1 [NO. 11 (Table 1), 1-[3-(4-cyclohexylcarbonylamino-2-methoxyphenoxy)-n-propyl]-4-phenyl-piperazine]	91.1%	94.3%	78.7%	78.8%	
COc1cc(NC(=O)C=C(C)C)ccc1OCCCN1CCN(c2ccccc2)CC1 [NO. 12 (Table 1), 1-{3-[4-((2-methyl-1-propenyl)carbonylamino)-2-methoxyphenoxy]-n-propyl}-4-phenylpiperazine]	76.7%	84.3%	91.9%	93.5%	
COc1cc(NC(=O)OC(C)(C)C)ccc1OCCCN1CCN(c2ccccc2)CC1 [NO. 14 (Table 1), 1-[3-(4-t-butoxycarbonylamino-2-methoxyphenoxy)-n-propyl]-4-phenyl-piperazine]	78.9%	77.7%	80.3%	81.6%	
